Test results from patent US20090170926A1, “Antiviral agents” (Monash Univeristy, priority 2004, published 2009).
Like-named read-outs stand apart in the source and are kept apart here.

Columns and labels:
[1] = system: hepatitis B in 2.2.15 human hepatoma cells; experiment: Antiviral activity in 2.2.15 human hepatoma cells infected with hepatitis B (viral DNA in supernatant); assay type: cell-based; conditions: Hepatitis B virus; for EC50: read-out: EC50 (effective concentration for 50% inhibition of the replication of the virus); for EC90: read-out: EC90 (effective concentration for 90% inhibition of the replication of the virus)
Description: Tests of antiviral activity were performed in 2.2.15 human hepatoma cells infected with hepatitis B according to the method of Korba and Gerin, Antiviral Research, 19, 55-70 (1992). Briefly, cells were seeded into 96 well plates and cell media containing various concentrations of the compounds was added. Media was changed daily for 9 days and fresh media containing compound was added each day. On the 10th day, viral DNA in the supernatant was measured and the reduction in the amount of virus in the supernatant was calculated compared to cells incubated without drug. Six separate replicates were performed for each drug concentration. The effective concentration for 50% and 90% inhibition of the replication of the virus was determined from dose response curves.

[2] = system: HBV containing mutations associated with resistance to lamivudine (L180M and L180M/M204V in the HBV DNA polymerase) in HepG2 hepatoma cells; experiment: HBV core protein level in HepG2 hepatoma cells infected with lamivudine-resistant HBV (non-denaturing Western blot); assay type: cell-based, hepatitis B virus; conditions: day 5, HBV core protein vs controls
Description: Antiviral activity was also examined in HepG2 hepatoma cells infected with HBV containing mutations associated with resistance to lamivudine (3TC). Two cell lines containing an L180M mutation in the HBV DNA polymerase, and a double L180M/M204V mutation were used. Cells were plated out in six well plates and allowed to attach overnight. Next day, the culture medium was replaced with either medium alone or medium containing the desired concentration of antiviral compound. Media was changed for fresh medium with or without antiviral compound on day 3. On day 5, supernatant and cell lysatcs were analysed for levels of HBV core protein by non-denaturing Western blot using an anti-HBV core antibody.
Results for some of the compounds are shown in Table 2 where a 50% reduction or more in measured level of the viral core protein compared to controls at a compound concentration of greater than 50 μmolar is designated +50% core reduction at less than 50 μmolar is designated ++ and 50% core reduction at less than 10 μmolar compound concentration is designated +++.

Solubility in water = assay type: physicochemical; conditions: read-out: solubility in water (fully soluble)
Description: The ^1H NMR can also be run in D2O, compound 13 is fully soluble in water at 10 mg/mL

[3] = 2.2.15 cells, 9 days treatment, viral DNA in supernatant on day 10

Cc1ccc(S(=O)(=O)OC2=C(Br)C(=O)c3ccc4c(c3C2=O)C=CC(C)(C)O4)cc1
melting point: 181.5 to 184 °C

Cc1ccc(S(=O)(=O)OC2=C(Br)C(=O)c3ccc4c(c3C2=O)CCC(C)(C)O4)cc1
melting point: 168 to 169.5 °C

CC1(C)CCc2c(ccc3c2C(=O)C(Cl)=C(Cl)C3=O)O1
melting point: 158 to 160 °C

Cc1ccc(S(=O)(=O)OC2=C(Br)C(=O)c3c(ccc4c3CCC(C)(C)O4)C2=O)cc1
melting point: 109 to 115 °C

Cc1ccc(S(=O)(=O)OC2=C(Br)C(=O)c3c(ccc4c3C=CC(C)(C)O4)C2=O)cc1
melting point: 167 to 168 °C

CC1(C)C=Cc2c(ccc3c2C(=O)C=C(O)C3=O)O1 [Compound 1, 8-hydroxy-3,3-dimethyl-3H-naphtho[2,1-b]pyran-7,10-dione]
EC50 [1]: 600 nM | EC90 [1]: 3400 nM | ≧50% core reduction [2]: +++ (50% core reduction at less than 10 μmolar compound concentration is designated +++) | melting point: 208 °C

CC1(C)CCc2c(ccc3c2C(=O)C=C(O)C3=O)O1 [Compound 2, 8-Hydroxy-3,3-dimethyl-1,2-dihydro-3H-naphtho[2,1-b]pyran-7,10-dione]
EC50 [1, 3]: 1100 nM | EC90 [1, 3]: 1300 nM | melting point: 183.5 to 187 °C

CC1(C)CCc2c(ccc3c2C(=O)C(Br)=C(O)C3=O)O1 [Compound 5, 9-bromo-8-hydroxy-3,3-dimethyl-1,2-dihydro-3H-naphtho[2,1-b]pyran-7,10-dione]
≧50% core reduction [2]: ++ (50% core reduction at less than 50 μmolar is designated ++) | melting point: 213 to 216 °C

CC1(C)C=Cc2c(ccc3c2C(=O)C(Br)=C(O)C3=O)O1 [Compound 6, 9-Bromo-8-hydroxy-3,3-dimethyl-3H-naphtho[2,1-b]pyran-7,10-dione]
≧50% core reduction [2]: + (a 50% reduction or more in measured level of the viral core protein compared to controls at a compound concentration of greater than 50 μmolar is designated +)

CC1(C)C=Cc2c(ccc3c2C(=O)C=C(O)C3=O)O1 [Compound 13, Sodium 3,3-dimethyl-7,10-dioxo-7,10-dihydro-3H-benzo[f]chromen-8-olate]
≧50% core reduction [2]: + (a 50% reduction or more in measured level of the viral core protein compared to controls at a compound concentration of greater than 50 μmolar is designated +) | solubility (Solubility in water): ≥ 10000 µg/mL
